{
  "source": "the kinase profiling compilation of Christmann-Franck et al. (2016)",
  "experiment_in_all_cases": "radiometric filter-binding kinase assay, Kinase HotSpot",
  "conditions_in_all_cases": "compound 0.5 µM; ATP 10 µM",
  "key": {"[1]": {"biological_target": "CAMK1 (human) (UniProt Q14012)"}, "[2]": {"biological_target": "FER (human) (UniProt P16591)"}, "[3]": {"biological_target": "MAPK1 (human) (UniProt P28482)"}, "[4]": {"biological_target": "MYO3B (human) (UniProt Q8WXR4)", "sequence (Q8WXR4 whole entry, looked up)": "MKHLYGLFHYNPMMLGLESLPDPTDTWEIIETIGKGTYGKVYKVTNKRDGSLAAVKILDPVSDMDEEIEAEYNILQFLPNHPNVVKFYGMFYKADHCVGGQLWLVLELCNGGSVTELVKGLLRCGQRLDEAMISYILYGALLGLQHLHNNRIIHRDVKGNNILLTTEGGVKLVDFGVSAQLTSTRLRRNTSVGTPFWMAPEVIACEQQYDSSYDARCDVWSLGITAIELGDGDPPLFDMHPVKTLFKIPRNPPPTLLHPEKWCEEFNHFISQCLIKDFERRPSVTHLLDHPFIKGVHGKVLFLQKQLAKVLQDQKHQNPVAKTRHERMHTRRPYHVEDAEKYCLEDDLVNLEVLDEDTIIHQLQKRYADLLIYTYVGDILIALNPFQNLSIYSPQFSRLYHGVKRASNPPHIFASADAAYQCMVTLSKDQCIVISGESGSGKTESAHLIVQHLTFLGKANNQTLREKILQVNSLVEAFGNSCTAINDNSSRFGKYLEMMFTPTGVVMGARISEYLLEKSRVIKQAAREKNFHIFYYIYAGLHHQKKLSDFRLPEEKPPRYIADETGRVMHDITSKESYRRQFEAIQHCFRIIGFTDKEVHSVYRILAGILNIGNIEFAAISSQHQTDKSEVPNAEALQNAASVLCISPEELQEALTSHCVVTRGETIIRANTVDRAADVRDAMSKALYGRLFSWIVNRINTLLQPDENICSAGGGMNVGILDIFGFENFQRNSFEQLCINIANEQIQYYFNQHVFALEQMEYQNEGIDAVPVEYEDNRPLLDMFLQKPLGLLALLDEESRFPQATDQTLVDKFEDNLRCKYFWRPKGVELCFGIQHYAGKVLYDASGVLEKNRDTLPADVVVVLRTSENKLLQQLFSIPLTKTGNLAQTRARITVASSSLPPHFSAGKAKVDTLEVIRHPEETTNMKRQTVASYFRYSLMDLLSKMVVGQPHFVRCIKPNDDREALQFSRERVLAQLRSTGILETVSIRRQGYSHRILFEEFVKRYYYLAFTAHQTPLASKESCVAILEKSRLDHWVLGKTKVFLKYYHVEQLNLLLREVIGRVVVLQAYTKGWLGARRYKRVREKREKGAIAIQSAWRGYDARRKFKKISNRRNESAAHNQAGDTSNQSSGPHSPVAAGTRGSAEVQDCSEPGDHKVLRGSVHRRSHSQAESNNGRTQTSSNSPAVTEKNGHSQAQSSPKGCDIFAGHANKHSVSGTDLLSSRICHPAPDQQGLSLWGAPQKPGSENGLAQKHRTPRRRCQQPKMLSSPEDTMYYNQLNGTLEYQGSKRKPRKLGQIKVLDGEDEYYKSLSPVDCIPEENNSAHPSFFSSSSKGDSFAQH"}, "[5]": {"biological_target": "MAPK8 (human) (UniProt P45983)"}, "[6]": {"biological_target": "DDR2 (human) (UniProt Q16832)"}, "[7]": {"biological_target": "EPHA2 (human) (UniProt P29317)"}, "[8]": {"biological_target": "NEK4 (human) (UniProt P51957)"}, "[9]": {"biological_target": "MST1R (human) (UniProt Q04912)"}, "[10]": {"biological_target": "NEK6 (human) (UniProt Q9HC98)", "sequence (Q9HC98 whole entry, looked up)": "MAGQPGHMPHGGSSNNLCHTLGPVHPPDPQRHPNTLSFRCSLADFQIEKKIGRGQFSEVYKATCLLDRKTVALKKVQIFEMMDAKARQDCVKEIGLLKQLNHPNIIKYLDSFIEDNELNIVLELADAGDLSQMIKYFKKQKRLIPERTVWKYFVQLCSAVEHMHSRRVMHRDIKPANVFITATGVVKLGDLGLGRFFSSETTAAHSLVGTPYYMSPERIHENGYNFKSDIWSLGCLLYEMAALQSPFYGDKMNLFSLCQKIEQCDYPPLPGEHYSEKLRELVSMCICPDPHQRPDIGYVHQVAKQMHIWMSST"}, "[11]": {"biological_target": "GRK6 (human) (UniProt P43250)"}, "[12]": {"biological_target": "CDK5 CDK5R1 p25 (human) (UniProt Q00535+Q15078)"}, "[13]": {"biological_target": "CSNK1G1 (human) (UniProt Q9HCP0)"}, "[14]": {"biological_target": "EPHB1 (human) (UniProt P54762)"}, "[15]": {"biological_target": "PRKCB1 (human) (UniProt P05771)"}, "[16]": {"biological_target": "PTK6 (human) (UniProt Q13882)", "sequence (Q13882 whole entry, looked up)": "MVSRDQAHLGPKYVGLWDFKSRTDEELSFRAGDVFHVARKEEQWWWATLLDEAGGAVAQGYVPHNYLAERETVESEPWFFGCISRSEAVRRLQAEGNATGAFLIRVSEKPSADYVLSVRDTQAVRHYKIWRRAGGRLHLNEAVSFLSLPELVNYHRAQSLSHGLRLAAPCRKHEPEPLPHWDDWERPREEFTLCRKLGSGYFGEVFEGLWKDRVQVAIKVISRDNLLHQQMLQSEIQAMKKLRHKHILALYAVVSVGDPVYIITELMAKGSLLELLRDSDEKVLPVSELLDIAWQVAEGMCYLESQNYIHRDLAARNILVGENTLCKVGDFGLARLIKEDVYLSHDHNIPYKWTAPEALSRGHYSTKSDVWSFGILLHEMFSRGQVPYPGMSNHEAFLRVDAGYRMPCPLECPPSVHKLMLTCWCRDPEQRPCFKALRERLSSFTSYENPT"}, "[17]": {"biological_target": "CSNK2A1 (human) (UniProt P68400)"}, "[18]": {"biological_target": "LTK (human) (UniProt P29376)"}, "[19]": {"biological_target": "SRMS (human) (UniProt Q9H3Y6)"}, "[20]": {"biological_target": "ACVR1 (human) (UniProt Q04771)"}, "[21]": {"biological_target": "STK25 (human) (UniProt O00506)"}, "[22]": {"biological_target": "NEK7 (human) (UniProt Q8TDX7)"}, "[23]": {"biological_target": "RPS6KB1 (human) (UniProt P23443)", "sequence (P23443 whole entry, looked up)": "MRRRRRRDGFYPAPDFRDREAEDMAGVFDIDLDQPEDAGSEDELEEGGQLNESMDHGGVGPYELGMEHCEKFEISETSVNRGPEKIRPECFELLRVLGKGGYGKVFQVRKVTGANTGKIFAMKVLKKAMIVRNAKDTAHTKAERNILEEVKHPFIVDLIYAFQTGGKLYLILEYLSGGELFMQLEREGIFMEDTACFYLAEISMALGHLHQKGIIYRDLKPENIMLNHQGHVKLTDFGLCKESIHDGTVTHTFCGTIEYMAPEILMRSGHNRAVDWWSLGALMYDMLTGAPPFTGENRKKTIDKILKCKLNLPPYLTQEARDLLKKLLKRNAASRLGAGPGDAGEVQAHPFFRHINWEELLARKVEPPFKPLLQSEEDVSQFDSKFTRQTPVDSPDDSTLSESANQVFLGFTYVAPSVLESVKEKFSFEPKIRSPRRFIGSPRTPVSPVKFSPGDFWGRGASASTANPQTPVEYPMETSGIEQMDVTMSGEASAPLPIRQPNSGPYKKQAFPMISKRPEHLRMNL"}, "[24]": {"biological_target": "TAOK1 (human) (UniProt Q7L7X3)"}, "[25]": {"biological_target": "PRKD2 (human) (UniProt Q9BZL6)"}, "[26]": {"biological_target": "PRKCI (human) (UniProt P41743)"}, "[27]": {"biological_target": "MAP3K5 (human) (UniProt Q99683)"}, "[28]": {"biological_target": "MARK2 (human) (UniProt Q7KZI7)"}, "[29]": {"biological_target": "NEK3 (human) (UniProt P51956)", "sequence (P51956 whole entry, looked up)": "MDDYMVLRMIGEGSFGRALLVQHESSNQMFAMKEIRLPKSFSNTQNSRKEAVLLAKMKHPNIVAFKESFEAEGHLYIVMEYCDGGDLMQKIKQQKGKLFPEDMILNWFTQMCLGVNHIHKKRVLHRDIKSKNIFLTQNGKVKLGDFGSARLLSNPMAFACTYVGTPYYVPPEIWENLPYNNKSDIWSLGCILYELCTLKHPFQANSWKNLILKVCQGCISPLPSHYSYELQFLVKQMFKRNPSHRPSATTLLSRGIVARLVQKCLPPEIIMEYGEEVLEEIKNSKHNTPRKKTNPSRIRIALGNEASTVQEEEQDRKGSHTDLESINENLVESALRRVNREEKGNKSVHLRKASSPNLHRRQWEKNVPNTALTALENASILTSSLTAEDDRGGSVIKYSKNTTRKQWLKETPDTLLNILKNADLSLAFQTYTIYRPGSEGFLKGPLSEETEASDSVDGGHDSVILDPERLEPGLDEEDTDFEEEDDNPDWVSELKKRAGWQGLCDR"}, "[30]": {"biological_target": "EPHA1 (human) (UniProt P21709)"}, "[31]": {"biological_target": "SYK (human) (UniProt P43405)"}, "[32]": {"biological_target": "CHUK (human) (UniProt O15111)"}, "[33]": {"biological_target": "IRAK1 (human) (UniProt P51617)", "sequence (P51617 whole entry, looked up)": "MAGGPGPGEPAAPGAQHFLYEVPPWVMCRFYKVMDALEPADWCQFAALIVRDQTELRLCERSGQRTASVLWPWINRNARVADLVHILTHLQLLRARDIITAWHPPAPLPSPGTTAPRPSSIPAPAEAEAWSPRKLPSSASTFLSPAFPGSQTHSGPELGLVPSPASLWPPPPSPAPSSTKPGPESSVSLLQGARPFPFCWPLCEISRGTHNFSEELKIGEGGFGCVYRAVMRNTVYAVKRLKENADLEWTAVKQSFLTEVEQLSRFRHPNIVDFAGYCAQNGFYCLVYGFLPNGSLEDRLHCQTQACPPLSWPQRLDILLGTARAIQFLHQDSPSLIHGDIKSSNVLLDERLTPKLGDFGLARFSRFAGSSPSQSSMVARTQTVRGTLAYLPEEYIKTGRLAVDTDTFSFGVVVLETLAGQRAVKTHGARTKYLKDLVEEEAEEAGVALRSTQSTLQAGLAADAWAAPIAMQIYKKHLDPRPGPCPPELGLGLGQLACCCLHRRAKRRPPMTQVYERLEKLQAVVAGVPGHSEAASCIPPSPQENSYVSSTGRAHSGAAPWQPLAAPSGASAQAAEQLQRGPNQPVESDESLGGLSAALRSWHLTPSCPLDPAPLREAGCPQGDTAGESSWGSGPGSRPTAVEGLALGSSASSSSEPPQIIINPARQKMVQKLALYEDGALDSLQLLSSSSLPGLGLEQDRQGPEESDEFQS"}, "[34]": {"biological_target": "DAPK1 (human) (UniProt P53355)"}, "[35]": {"biological_target": "HIPK1 (human) (UniProt Q86Z02)"}, "[36]": {"biological_target": "CAMK1G (human) (UniProt Q96NX5)"}, "[37]": {"biological_target": "BRSK1 (human) (UniProt Q8TDC3)"}, "[38]": {"biological_target": "EPHA3 (human) (UniProt P29320)"}, "[39]": {"biological_target": "EPHA7 (human) (UniProt Q15375)"}, "[40]": {"biological_target": "ULK2 (human) (UniProt Q8IYT8)"}, "[41]": {"biological_target": "HIPK2 (human) (UniProt Q9H2X6)", "sequence (Q9H2X6 whole entry, looked up)": "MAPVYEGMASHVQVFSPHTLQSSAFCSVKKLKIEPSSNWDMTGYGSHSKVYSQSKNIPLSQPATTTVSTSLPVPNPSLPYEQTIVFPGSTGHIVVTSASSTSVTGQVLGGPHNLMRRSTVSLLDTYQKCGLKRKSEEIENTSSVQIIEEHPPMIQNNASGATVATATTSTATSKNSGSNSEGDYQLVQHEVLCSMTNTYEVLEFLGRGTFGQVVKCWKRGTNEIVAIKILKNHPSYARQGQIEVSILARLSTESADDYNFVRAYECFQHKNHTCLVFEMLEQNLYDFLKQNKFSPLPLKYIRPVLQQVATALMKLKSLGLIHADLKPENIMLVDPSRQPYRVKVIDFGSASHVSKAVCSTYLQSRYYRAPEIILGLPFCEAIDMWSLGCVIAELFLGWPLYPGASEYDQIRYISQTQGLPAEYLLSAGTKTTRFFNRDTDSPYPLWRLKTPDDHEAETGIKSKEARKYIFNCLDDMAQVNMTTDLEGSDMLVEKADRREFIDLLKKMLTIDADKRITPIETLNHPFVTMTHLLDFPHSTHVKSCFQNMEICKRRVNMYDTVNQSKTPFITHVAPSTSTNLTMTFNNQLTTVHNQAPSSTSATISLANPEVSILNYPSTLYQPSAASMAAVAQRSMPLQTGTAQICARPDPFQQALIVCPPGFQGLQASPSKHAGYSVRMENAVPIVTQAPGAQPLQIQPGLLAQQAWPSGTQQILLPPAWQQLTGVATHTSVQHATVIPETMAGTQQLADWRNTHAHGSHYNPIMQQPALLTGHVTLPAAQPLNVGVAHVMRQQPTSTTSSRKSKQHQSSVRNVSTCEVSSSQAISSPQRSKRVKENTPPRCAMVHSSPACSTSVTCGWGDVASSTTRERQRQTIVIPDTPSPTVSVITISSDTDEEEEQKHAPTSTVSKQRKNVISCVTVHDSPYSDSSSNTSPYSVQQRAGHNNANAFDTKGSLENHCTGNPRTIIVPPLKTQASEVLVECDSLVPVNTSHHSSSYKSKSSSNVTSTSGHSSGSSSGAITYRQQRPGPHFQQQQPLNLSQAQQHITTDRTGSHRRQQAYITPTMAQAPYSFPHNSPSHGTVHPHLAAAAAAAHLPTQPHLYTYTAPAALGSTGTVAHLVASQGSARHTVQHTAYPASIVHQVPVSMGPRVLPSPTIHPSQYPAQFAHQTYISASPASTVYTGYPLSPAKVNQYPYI"}, "[42]": {"biological_target": "CAMK2D (human) (UniProt Q13557)"}},
  "data": [
    {"smiles": "Oc1cccc(-c2nc(N3CCOCC3)c3oc4ncccc4c3n2)c1", "values": [
      {"measurement": "residual activity", "setting": "[1]", "result": 101, "unit": "%"},
      {"measurement": "residual activity", "setting": "[2]", "result": 97.8, "unit": "%"},
      {"measurement": "residual activity", "setting": "[3]", "result": 89, "unit": "%"},
      {"measurement": "residual activity", "setting": "[4]", "result": 81.3, "unit": "%"},
      {"measurement": "residual activity", "setting": "[5]", "result": 89.8, "unit": "%"},
      {"measurement": "residual activity", "setting": "[6]", "result": 94.6, "unit": "%"},
      {"measurement": "residual activity", "setting": "[7]", "result": 99.9, "unit": "%"},
      {"measurement": "residual activity", "setting": "[8]", "result": 90.4, "unit": "%"},
      {"measurement": "residual activity", "setting": "[9]", "result": 94.3, "unit": "%"},
      {"measurement": "residual activity", "setting": "[10]", "result": 106, "unit": "%"},
      {"measurement": "residual activity", "setting": "[11]", "result": 98.2, "unit": "%"},
      {"measurement": "residual activity", "setting": "[12]", "result": 77.9, "unit": "%"},
      {"measurement": "residual activity", "setting": "[13]", "result": 89.4, "unit": "%"},
      {"measurement": "residual activity", "setting": "[14]", "result": 89.6, "unit": "%"},
      {"measurement": "residual activity", "setting": "[15]", "result": 97.8, "unit": "%"},
      {"measurement": "residual activity", "setting": "[16]", "result": 80.8, "unit": "%"},
      {"measurement": "residual activity", "setting": "[17]", "result": 94.7, "unit": "%"},
      {"measurement": "residual activity", "setting": "[18]", "result": 97.6, "unit": "%"},
      {"measurement": "residual activity", "setting": "[19]", "result": 96.2, "unit": "%"},
      {"measurement": "residual activity", "setting": "[20]", "result": 105, "unit": "%"},
      {"measurement": "residual activity", "setting": "[21]", "result": 93.4, "unit": "%"},
      {"measurement": "residual activity", "setting": "[22]", "result": 97.3, "unit": "%"},
      {"measurement": "residual activity", "setting": "[23]", "result": 106, "unit": "%"},
      {"measurement": "residual activity", "setting": "[24]", "result": 91.6, "unit": "%"},
      {"measurement": "residual activity", "setting": "[25]", "result": 93.8, "unit": "%"},
      {"measurement": "residual activity", "setting": "[26]", "result": 94.9, "unit": "%"},
      {"measurement": "residual activity", "setting": "[27]", "result": 101, "unit": "%"},
      {"measurement": "residual activity", "setting": "[28]", "result": 92.9, "unit": "%"},
      {"measurement": "residual activity", "setting": "[29]", "result": 92.9, "unit": "%"},
      {"measurement": "residual activity", "setting": "[30]", "result": 87.8, "unit": "%"},
      {"measurement": "residual activity", "setting": "[31]", "result": 94.2, "unit": "%"},
      {"measurement": "residual activity", "setting": "[32]", "result": 94.8, "unit": "%"},
      {"measurement": "residual activity", "setting": "[33]", "result": 84.2, "unit": "%"},
      {"measurement": "residual activity", "setting": "[34]", "result": 78, "unit": "%"},
      {"measurement": "residual activity", "setting": "[35]", "result": 101, "unit": "%"},
      {"measurement": "residual activity", "setting": "[36]", "result": 99.2, "unit": "%"},
      {"measurement": "residual activity", "setting": "[37]", "result": 91.1, "unit": "%"},
      {"measurement": "residual activity", "setting": "[38]", "result": 93.7, "unit": "%"},
      {"measurement": "residual activity", "setting": "[39]", "result": 93.9, "unit": "%"},
      {"measurement": "residual activity", "setting": "[40]", "result": 106, "unit": "%"},
      {"measurement": "residual activity", "setting": "[41]", "result": 102, "unit": "%"},
      {"measurement": "residual activity", "setting": "[42]", "result": 96.2, "unit": "%"}
    ]},
    {"smiles": "CO[C@H]1CC2CC[C@@H](C)[C@@](O)(O2)C(=O)C(=O)N2CCCC[C@H]2C(=O)OC([C@H](C)C[C@@H]2CC[C@@H](O)[C@H](OC)C2)CC(=O)[C@H](C)/C=C(\\C)[C@@H](O)[C@@H](OC)C(=O)[C@H](C)C[C@H](C)/C=C/C=C/C=C/1C", "note": "(some centres undefined)", "values": [
      {"measurement": "residual activity", "setting": "[1]", "result": 111, "unit": "%"},
      {"measurement": "residual activity", "setting": "[2]", "result": 92, "unit": "%"},
      {"measurement": "residual activity", "setting": "[3]", "result": 101, "unit": "%"},
      {"measurement": "residual activity", "setting": "[4]", "result": 106, "unit": "%"},
      {"measurement": "residual activity", "setting": "[5]", "result": 100, "unit": "%"},
      {"measurement": "residual activity", "setting": "[6]", "result": 95.6, "unit": "%"},
      {"measurement": "residual activity", "setting": "[7]", "result": 107, "unit": "%"},
      {"measurement": "residual activity", "setting": "[8]", "result": 97.2, "unit": "%"},
      {"measurement": "residual activity", "setting": "[9]", "result": 97, "unit": "%"},
      {"measurement": "residual activity", "setting": "[10]", "result": 97.7, "unit": "%"},
      {"measurement": "residual activity", "setting": "[11]", "result": 103, "unit": "%"},
      {"measurement": "residual activity", "setting": "[12]", "result": 96.3, "unit": "%"},
      {"measurement": "residual activity", "setting": "[13]", "result": 96, "unit": "%"},
      {"measurement": "residual activity", "setting": "[14]", "result": 110, "unit": "%"},
      {"measurement": "residual activity", "setting": "[15]", "result": 102, "unit": "%"},
      {"measurement": "residual activity", "setting": "[16]", "result": 88, "unit": "%"},
      {"measurement": "residual activity", "setting": "[17]", "result": 94.7, "unit": "%"},
      {"measurement": "residual activity", "setting": "[18]", "result": 107, "unit": "%"},
      {"measurement": "residual activity", "setting": "[19]", "result": 108, "unit": "%"},
      {"measurement": "residual activity", "setting": "[20]", "result": 94.6, "unit": "%"},
      {"measurement": "residual activity", "setting": "[21]", "result": 129, "unit": "%"},
      {"measurement": "residual activity", "setting": "[22]", "result": 104, "unit": "%"},
      {"measurement": "residual activity", "setting": "[23]", "result": 92.6, "unit": "%"},
      {"measurement": "residual activity", "setting": "[24]", "result": 102, "unit": "%"},
      {"measurement": "residual activity", "setting": "[25]", "result": 99, "unit": "%"},
      {"measurement": "residual activity", "setting": "[26]", "result": 99.1, "unit": "%"},
      {"measurement": "residual activity", "setting": "[27]", "result": 107, "unit": "%"},
      {"measurement": "residual activity", "setting": "[28]", "result": 104, "unit": "%"},
      {"measurement": "residual activity", "setting": "[29]", "result": 99, "unit": "%"},
      {"measurement": "residual activity", "setting": "[30]", "result": 99.5, "unit": "%"},
      {"measurement": "residual activity", "setting": "[31]", "result": 97.1, "unit": "%"},
      {"measurement": "residual activity", "setting": "[32]", "result": 110, "unit": "%"},
      {"measurement": "residual activity", "setting": "[33]", "result": 118, "unit": "%"},
      {"measurement": "residual activity", "setting": "[34]", "result": 88.5, "unit": "%"},
      {"measurement": "residual activity", "setting": "[35]", "result": 99.1, "unit": "%"},
      {"measurement": "residual activity", "setting": "[36]", "result": 93, "unit": "%"},
      {"measurement": "residual activity", "setting": "[37]", "result": 99.9, "unit": "%"},
      {"measurement": "residual activity", "setting": "[38]", "result": 109, "unit": "%"},
      {"measurement": "residual activity", "setting": "[39]", "result": 89.7, "unit": "%"},
      {"measurement": "residual activity", "setting": "[40]", "result": 120, "unit": "%"},
      {"measurement": "residual activity", "setting": "[41]", "result": 88, "unit": "%"},
      {"measurement": "residual activity", "setting": "[42]", "result": 96.1, "unit": "%"}
    ]}
  ]
}
